The values below are quoted from earlier work in patent publication US12466782B2, “Arylcyclohexylamine derivatives and process for preparing same” (Technische Hochschule Köln, priority 2020, dated 2025).

For this series the following is noted: mouse model.

SMILES strings stand for the structures.

As to `NC1(c2ccccc2Cl)CCCC(O)C1=O` (stereo not shown) [6-hydroxynorketamine], the “dose at which an effect comparable to that of 10 mg/kg ketamine was observed” value is on record as at least 25 mg/kg.
